Experimental data published in ChEMBL document CHEMBL4387783, “Bioactive triterpene glycosides from the fruit of Stauntonia hexaphylla and insights into the molecular mechanism of its inflammatory effects” (Bioorg Med Chem Lett, 2019).
Activity calls are given as the source filed them. No cut-off for these calls is given here.

Tests used:
RAW264.7 [1] = assay: Antiinflammatory activity in mouse RAW264.7 cells assessed as inhibition of LPS-induced nitirc oxide production preincubated for 1 hr followed by LPS-stimulation and measured after 18 hrs by Griess assay; format: functional, cell-based
[2] = Cytotoxicity against LPS-stimulated mouse RAW264.7 cells assessed as cell viability at antiinflammatory IC50 preincubated for 1 hr followed by LPS-stimulation and measured after 18 hrs by MTT assay relative to control; format: cell-based; details: LPS-stimulated RAW264.7 cells, read-out: Activity
RAW264.7 [3] = assay: Antiinflammatory activity in mouse RAW264.7 cells assessed as inhibition of LPS-induced iNOS expression at 1 to 5 uM preincubated for 1 hr followed by LPS-stimulation and measured after 16 hrs by Western blot analysis; format: functional, cell-based
RAW264.7 [4] = assay: Antiinflammatory activity in mouse RAW264.7 cells assessed as inhibition of LPS-induced COX2 expression at 1 to 5 uM preincubated for 1 hr followed by LPS-stimulation and measured after 16 hrs by Western blot analysis; format: functional, cell-based

| Compound | IC50 (RAW264.7 [1]) [µM] | other results |
| --- | --- | --- |
| C[C@@H]1O[C@@H](O[C@H]2[C@H](O[C@H]3CC[C@]4(C)[C@H]5CC=C6[C@@H]7CC(C)(C)CC[C@]7(C(=O)O[C@@H]7O[C@H](CO[C@@H]8O[C@H](CO)[C@@H](O[C@@H]9O[C@@H](C)[C@H](O)[C@@H](O)[C@H]9O)[C@H](O)[C@H]8O)[C@@H](O)[C@H](O)[C@H]7O)CC[C@@]6(C)[C@]5(C)CC[C@H]4C3(C)C)OC[C@H](O)[C@@H]2O)[C@H](O)[C@H](O)[C@H]1O [HEDERASAPONIN B] | > 50 | – |
| C[C@@H]1O[C@@H](O[C@H]2[C@H](O)[C@@H](O)[C@H](OC[C@H]3O[C@@H](OC(=O)[C@]45CCC(C)(C)C[C@H]4C4=CC[C@@H]6[C@@]7(C)CC[C@H](O[C@@H]8OC[C@H](O)[C@H](O)[C@H]8O[C@@H]8O[C@H](CO)[C@@H](O)[C@H](O)[C@H]8O)C(C)(C)[C@@H]7CC[C@@]6(C)[C@]4(C)CC5)[C@H](O)[C@@H](O)[C@@H]3O)O[C@@H]2CO)[C@H](O)[C@H](O)[C@H]1O | > 50 | – |
| COc1cc(CCC(=O)O)ccc1O [DIHYDROFERULIC ACID] | > 50 | – |
| CC1(C)CC[C@]2(C(=O)O)CC[C@]3(C)C(=CC[C@@H]4[C@@]5(C)C[C@@H](O)[C@H](O)[C@@](C)(CO)[C@@H]5CC[C@]43C)[C@@H]2C1 [ARJUNOLIC ACID] | 15.2 | – |
| C[C@@H]1O[C@@H](O[C@H]2[C@H](O[C@H]3CC[C@@]4(C)[C@@H](CC[C@]5(C)[C@@H]4CC=C4[C@@H]6CC(C)(C)CC[C@]6(C(=O)O)CC[C@]45C)[C@]3(C)CO)O[C@H](CO)[C@@H](O)[C@@H]2O)[C@H](O)[C@H](O)[C@H]1O | 4.2 to 4.21 | – |
| C[C@@H]1O[C@@H](O[C@H]2[C@H](O[C@H]3CC[C@]4(C)[C@H]5CC=C6[C@@H]7CC(C)(C)CC[C@]7(C(=O)O)CC[C@@]6(C)[C@]5(C)CC[C@H]4C3(C)C)OC[C@H](O[C@@H]3O[C@H](CO)[C@@H](O)[C@H](O)[C@H]3O)[C@@H]2O)[C@H](O)[C@H](O)[C@H]1O[C@@H]1O[C@H](CO)[C@@H](O)[C@H](O)[C@H]1O | > 50 | – |
| C[C@@H]1O[C@@H](O[C@H]2[C@H](O)[C@@H](O)[C@H](OC[C@H]3O[C@@H](OC(=O)[C@]45CCC(C)(C)C[C@H]4C4=CC[C@@H]6[C@@]7(C)CC[C@H](O)[C@@](C)(CO)[C@@H]7CC[C@@]6(C)[C@]4(C)CC5)[C@H](O)[C@@H](O)[C@@H]3O)O[C@@H]2CO)[C@H](O)[C@H](O)[C@H]1O [KIZUTA CIRENSENOSIDE O SAPONIN K3] | > 50 | – |
| CC1(C)CC[C@]2(C(=O)O)CC[C@]3(C)C(=CC[C@@H]4[C@@]5(C)CC[C@H](O[C@@H]6OC[C@H](O)[C@H](O)[C@H]6O)[C@@](C)(CO)[C@@H]5CC[C@]43C)[C@@H]2C1 | 2.25 to 2.3 | – |
| CC1(C)CC[C@]2(C(=O)O)CC[C@]3(C)C(=CC[C@@H]4[C@@]5(C)CC[C@H](O[C@@H]6O[C@H](CO)[C@@H](O)[C@H](O)[C@H]6O[C@@H]6OC[C@H](O)[C@H](O)[C@H]6O)C(C)(C)[C@@H]5CC[C@]43C)[C@@H]2C1 | 3.1 to 3.13 | – |
| C[C@@H]1C[C@H]2[C@@H]3CCC4=CC(=O)C=C[C@]4(C)[C@@]3(F)[C@@H](O)C[C@]2(C)[C@@]1(O)C(=O)CO [DEXAMETHASONE] | 0.01 | – |
| CC1(C)CC[C@]2(C(=O)O[C@@H]3O[C@H](CO[C@@H]4O[C@H](CO)[C@@H](O)[C@H](O)[C@H]4O)[C@@H](O)[C@H](O)[C@H]3O)CC[C@]3(C)C(=CC[C@@H]4[C@@]5(C)CC[C@H](O[C@@H]6OC[C@H](O)[C@H](O)[C@H]6O)[C@@](C)(CO)[C@@H]5CC[C@]43C)[C@@H]2C1 | > 50 | – |
| C[C@@H]1O[C@@H](O[C@H]2[C@H](O[C@H]3CC[C@@]4(C)[C@@H](CC[C@]5(C)[C@@H]4CC=C4[C@@H]6CC(C)(C)CC[C@]6(C(=O)O[C@@H]6O[C@H](CO[C@@H]7O[C@H](CO)[C@@H](O[C@@H]8O[C@@H](C)[C@H](O)[C@@H](O)[C@H]8O)[C@H](O)[C@H]7O)[C@@H](O)[C@H](O)[C@H]6O)CC[C@]45C)[C@]3(C)CO)OC[C@H](O)[C@@H]2O)[C@H](O)[C@H](O)[C@H]1O [KALOPANAXSAPONIN B] | > 50 | – |
| COc1cc(O)cc(OC)c1O[C@@H]1O[C@H](CO)[C@@H](O)[C@H](O)[C@H]1O [LEONURISIDE] | > 50 | – |
| COC(=O)C(CC(=O)O)OC(=O)/C=C/c1ccc(O)c(O)c1 (stereo not drawn) | > 50 | – |
| CC1(C)[C@H](O)CC[C@]2(C)[C@H]3CC=C4[C@@H]5C[C@](C)(CO)CC[C@]5(C(=O)O)CC[C@@]4(C)[C@]3(C)CC[C@@H]12 | > 50 | – |
| C[C@@H]1O[C@@H](O[C@H]2[C@H](O)[C@@H](O)[C@H](OC[C@H]3O[C@@H](OC(=O)[C@]45CCC(C)(C)C[C@H]4C4=CC[C@@H]6[C@@]7(C)CC[C@H](O[C@@H]8OC[C@H](O)[C@H](O[C@@H]9OC[C@H](O)[C@H](O)[C@H]9O)[C@H]8O)C(C)(C)[C@@H]7CC[C@@]6(C)[C@]4(C)CC5)[C@H](O)[C@@H](O)[C@@H]3O)O[C@@H]2CO)[C@H](O)[C@H](O)[C@H]1O | > 50 | – |
| C[C@@H]1O[C@@H](O[C@H]2[C@H](O[C@H]3CC[C@@]4(C)[C@@H](CC[C@]5(C)[C@@H]4CC=C4[C@@H]6CC(C)(C)CC[C@]6(C(=O)O)CC[C@]45C)[C@]3(C)CO)OC[C@H](O)[C@@H]2O)[C@H](O)[C@H](O)[C@H]1O [ALPHA-HEDERIN] | 1.1 | inhibition (RAW264.7 [3]): Active; inhibition (RAW264.7 [4]): Active |
| CC1(C)CC[C@]2(C(=O)O[C@@H]3O[C@H](CO[C@@H]4O[C@H](CO)[C@@H](O)[C@H](O)[C@H]4O)[C@@H](O)[C@H](O)[C@H]3O)CC[C@]3(C)C(=CC[C@@H]4[C@@]5(C)CC[C@H](O[C@@H]6O[C@H](CO)[C@@H](O)[C@H](O)[C@H]6O)C(C)(C)[C@@H]5CC[C@]43C)[C@@H]2C1 | > 50 | – |
| CC1(C)CC[C@]2(C(=O)O)CC[C@]3(C)C(=CC[C@@H]4[C@@]5(C)CC[C@H](O[C@@H]6O[C@H](CO)[C@@H](O)[C@H](O)[C@H]6O)[C@@](C)(CO)[C@@H]5CC[C@]43C)[C@@H]2C1 [Hederagenin-3-O-beta-D-glucopyranoside] | 13.4 | – |

More lines, main results first:

| IC50 (RAW264.7 [1]) [µM] | Compound | other results |
| --- | --- | --- |
| > 50 | CC1(C)CC[C@]2(C(=O)O[C@@H]3O[C@H](CO[C@@H]4O[C@H](CO)[C@@H](O)[C@H](O)[C@H]4O)[C@@H](O)[C@H](O)[C@H]3O)CC[C@]3(C)C(=CC[C@@H]4[C@@]5(C)CC[C@H](O[C@@H]6OC[C@H](O)[C@H](O)[C@H]6O[C@@H]6O[C@H](CO)[C@@H](O)[C@H](O)[C@H]6O)C(C)(C)[C@@H]5CC[C@]43C)[C@@H]2C1 | – |
| > 50 | C[C@@H]1O[C@@H](O[C@H]2[C@H](O[C@H]3CC[C@]4(C)[C@H]5CC=C6[C@@H]7CC(C)(C)CC[C@]7(C(=O)O[C@@H]7O[C@H](CO)[C@@H](O)[C@H](O)[C@H]7O)CC[C@@]6(C)[C@]5(C)CC[C@H]4C3(C)C)OC[C@H](O)[C@@H]2O)[C@H](O)[C@H](O)[C@H]1O | – |
| 4 to 4.04 | CC1(C)CC[C@]2(C(=O)O)CC[C@]3(C)C(=CC[C@@H]4[C@@]5(C)CC[C@H](O[C@@H]6OC[C@H](O)[C@H](O)[C@H]6O)C(C)(C)[C@@H]5CC[C@]43C)[C@@H]2C1 | – |
| 1.5 | C[C@@H]1O[C@@H](O[C@H]2[C@H](O[C@H]3CC[C@]4(C)[C@H]5CC=C6[C@@H]7CC(C)(C)CC[C@]7(C(=O)O)CC[C@@]6(C)[C@]5(C)CC[C@H]4C3(C)C)O[C@H](CO)[C@@H](O)[C@@H]2O)[C@H](O)[C@H](O)[C@H]1O | viability at 18 h [2]: < 60% |
| 3.68 to 3.7 | C[C@@H]1O[C@@H](O[C@H]2[C@H](O)[C@@H](O)[C@H](OC[C@H]3O[C@@H](OC(=O)[C@]45CCC(C)(C)C[C@H]4C4=CC[C@@H]6[C@@]7(C)CC[C@H](O[C@@H]8OC[C@H](O)[C@H](O)[C@H]8O)[C@@](C)(CO)[C@@H]7CC[C@@]6(C)[C@]4(C)CC5)[C@H](O)[C@@H](O)[C@@H]3O)O[C@@H]2CO)[C@H](O)[C@H](O)[C@H]1O [CAULOSIDE D] | viability at 18 h [2]: < 60% |
| > 50 | CC1(C)CC[C@]2(C(=O)O)CC[C@]3(C)C(=CC[C@@H]4[C@@]5(C)CC[C@@H](O)[C@@](C)(CO)[C@@H]5CC[C@]43C)[C@@H]2C1 | – |
| > 50 | CC1=CC(=O)CC(C)(C)[C@@]1(O)/C=C/[C@H](C)O | – |
| 1.3 to 1.33 | C[C@@H]1O[C@@H](O[C@H]2[C@H](O[C@H]3CC[C@]4(C)[C@H]5CC=C6[C@@H]7CC(C)(C)CC[C@]7(C(=O)O)CC[C@@]6(C)[C@]5(C)CC[C@H]4C3(C)C)OC[C@H](O)[C@@H]2O)[C@H](O)[C@H](O)[C@H]1O | inhibition (RAW264.7 [3]): Active; inhibition (RAW264.7 [4]): Active |
